Results: patent US7678395B2, “Stimulation of hair growth by isoginkgetin” (Osteoscreen, Inc., priority 2003, dated 2010)
Where a SMILES comes first, the peptide text is derived from it. The star is where a group is joined. Cbz = O=C(OCc1ccccc1)*; OtBu = CC(C)(C)O*

Assays:
[1] = tested on: C57 male black mice; experiment: Stimulation of hair growth on shaved dorsal trunk, topical application; format: in vivo; details: 5 days, 1% OSA (100 μl) or 10% isoginkgetin (50 μl), after 17 days and 26 days, FIGS. 3A and 3B
Procedure: C57 male black mice, 8 weeks old, were acclimated for 7 days in individual cages and fed standard diets and water ad libitum. The mice were anesthetized prior to manipulation. The dorsal trunk of each mouse was shaved and then treated topically starting the following day with a 1.0% solution of OSA (100 μl) which was applied for each of 5 days. A similar protocol was followed using 50 μl solution of isoginkgetin at percentages of 1, 5 and 10% wt/wt. The progression of hair growth is monitored visually and photographed.
FIGS. 3A and 3B show the results for 1% OSA or 10% isoginkgetin after 17 days and 26 days respectively.

[2] = biological target: T1, proteasomes of red blood cells (Mus musculus, UniProt O55234); experiment: Proteasome inhibition assay, red blood cells treated with compounds, then proteasomes isolated and protease activity assessed; format: cell-based; details: red blood cells treated first, then proteasomes isolated; OSA compared with isoginkgetin; FIG. 2B
T1 construct: endogenous in cells; host or cells: red blood cells
Procedure: If RBC are used, the RBC pellet obtained in the process of obtaining WBC described above is recovered and washed with 3 ml PBS, then centrifuged at 500×g (Sorvall RT 6000D, rotor H-1000B at 1500 rpm) for 5 min at room temperature. The supernatant is removed and the RBC pellet resuspended in 1 ml PBS and microcentrifuged at 6600×g (Eppendorf 5415C at 7000 rpm) for 10 min at room temperature. The supernatant is again removed and the RBC pellet is then frozen at −70° C. prior to proteasome analysis.
To prepare the proteasomes, WBC or RBC or PWB 1:1 (v/v) are lysed using 5 mM EDTA, pH 8.0 for 30 min and centrifuged at 15,000×g (Eppendorf 5415C at 14,000 rpm) for 10 min at room temperature. The supernatant containing proteasomes is placed on ice and the protein concentration is determined.
(§1) For the assay, 50 μl sample—i.e., 20 proteasome; or standard; or ˜50 μg/μl WBC; or ˜500 μg/μl RBC or ˜1000 μg/μl PWB samples some containing test compounds is added to 50 μl substrate buffer (20 mM HEPES, 0.5 mM EDTA, 0.05% SDS, and 120 μM LLVY-AMC; pH 8.0) in a 96-well black fluorescence plate. The reaction is measured with a fluorescence spectrophotometer (excitation max.: 380 nm; emission max.: 440 nm, and velocity of reaction determined. As shown, the substrate is Leu-Leu-Val-Tyr-AMC. AMC is amido-4-methylcoumarin. […]

[3] = biological target: T2, 20S proteasome (Mus musculus, UniProt O55234); experiment: Proteasome inhibition assay, compounds added directly to 20S proteasome preparation (LLVY-AMC cleavage); format: biochemical; details: 20S proteasome preparations from packed whole blood of mice, FIG. 2A
T2 construct: 20S proteasome preparations from packed whole blood of mice; from tissue; host or cells: packed whole blood of mice (EDTA lysate supernatant)
Procedure: If packed whole blood is used as a source for proteasomes, 1 ml blood collected in heparinized microtainer tubes is diluted 1:1 (v/v) with saline and centrifuged at 500×g (Sorvall RT 6000D, rotor H-1000B at 1500 rpm) for 5 min at room temperature. The supernatant is removed and the PWB pellet resuspended in 1 ml PBS and microcentrifuged at 6600×g (Eppendorf 5415C at 7000 rpm) for 10 min at room temperature. The supernatant is removed and the PWB pellet is then frozen at −70° C. prior to proteasome analysis.
To prepare the proteasomes, WBC or RBC or PWB 1:1 (v/v) are lysed using 5 mM EDTA, pH 8.0 for 30 min and centrifuged at 15,000×g (Eppendorf 5415C at 14,000 rpm) for 10 min at room temperature. The supernatant containing proteasomes is placed on ice and the protein concentration is determined. […]
as §1

## CC[C@H](C)[C@H](NC(=O)OCc1ccccc1)C(=O)N[C@@H](CCC(=O)OC(C)(C)C)C(=O)N[C@@H](C)C(=O)N[C@H](C=O)CC(C)C [OSA] (Cbz-IE(OtBu)AL-aldehyde)
[1]
  growth of hair in the dorsal area as compared to control: stimulate the growth of hair
[2]
  proteasome inhibition when red blood cells are treated with the compounds: more effective
[3]
  inhibition of the Vmax of the proteolytic cleavage of the LLVY-AMC substrate: similarly inhibit the Vmax
